Broadly, the EC50 is the midpoint of the concentration-response curve.

Each structure is given as a SMILES string. Read-outs that look alike come from different tables or passages of the source.

This experiment relates to HBV. Description: HepAD38 antiviral assay: reduction of viral product accumulation (virion DNA by qPCR, HBsAg or HBeAg by ELISA). Format: cell-based, hepatitis B virus. Conditions: read-out: HepAD38 EC50. The gist of the method:
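EC50 values represent 50% reduction of viral product accumulation in lysates or supernatants relative to untreated controls, with virion DNA read by qPCR and HBsAg/HBeAg by ELISA. Measurements followed 5 days of treatment, or 8 days with compound renewed on d2 and d5. Cells were tetracycline-depleted HepAD38 at 35,000/well, dosed with a 1:200 dilution of DMSO stocks.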
On the technique in general: Quantitative PCR measures a nucleic acid by following its amplification.

Setting [1] is: Hepatitis B virus, HePAD38, 120 h, HepAD38 cells, five days after compound addition, concentration reducing viral product accumulation by 50% relative to no drug controls.
Setting [2] is: HepAD38 cells, five days after compound addition, concentration reducing viral product accumulation by 50% relative to no drug controls.

Consider `O=C(Nc1cc(F)c(F)c(F)c1)c1ccc(Cl)c(S(=O)(=O)[C@H]2C3CC[C@H]2C[C@](O)(/C=N/OCc2cccc(F)c2)C3)c1` [Example 236], for which the half-maximal effective concentration (EC50) under setting [1] was 100 to 400 nM.
Turning to `COc1cccc(CO/N=C/[C@]2(O)CC3CC[C@@H](C2)[C@H]3S(=O)(=O)c2cc(C(=O)Nc3cc(F)c(F)c(F)c3)ccc2Cl)c1` [Example 237], under setting [1], the EC50 was in the range of 100 to 400 nM.
With `COc1ccccc1CO/N=C/[C@]1(O)CC2CC[C@@H](C1)[C@H]2S(=O)(=O)c1cc(C(=O)Nc2cc(F)c(F)c(F)c2)ccc1Cl` [Example 238], under setting [1], the EC50 was in the range of 100 to 400 nM.
For `O=C(Nc1cc(F)c(F)c(F)c1)c1ccc(Cl)c(S(=O)(=O)[C@H]2C3CC[C@H]2C[C@H](c2cc(-c4ccccc4)on2)C3)c1` [Example 239], the concentration giving a half-maximal response (EC50) under setting [1] was below 100 nM.
Take `O=C(Nc1cc(F)c(F)c(F)c1)c1ccc(Cl)c(S(=O)(=O)C[C@H]2CC3CC2[C@H](O)[C@@H]3O)c1` (some centres unmarked) [Example 241]: the concentration giving a half-maximal response (EC50) under setting [1] was below 100 nM.
The same measure, in the same setting: in the case of `O=C(Nc1cc(F)c(F)c(F)c1)c1ccc(Cl)c(S(=O)(=O)C[C@@H]2CC3CC2[C@H](O)[C@@H]3O)c1` (some centres unmarked) [Example 242] it was 100 to 400 nM; in that of `O=C(Nc1cc(F)c(F)c(F)c1)c1ccc(Cl)c(S(=O)(=O)CC2CC3CCC2C(O)C3O)c1` (centres unmarked) [Example 243], below 100 nM; in that of `O=C(Nc1cc(F)c(F)c(F)c1)c1ccc(Cl)c(S(=O)(=O)[C@H]2C3CC[C@H]2C[C@](O)(/C=N/OCc2ccccc2F)C3)c1` [Example 244], below 100 nM.
In the case of `O=C(Nc1cc(F)c(F)c(F)c1)c1ccc(Cl)c(S(=O)(=O)C2CC3CCC(C2)C3=O)c1` (centres unmarked) [Example 245], the EC50 under setting [2] lay within 100 to 400 nM.
`C[C@@]1(O)CC2CC[C@@H](C1)[C@H]2S(=O)(=O)c1cc(C(=O)Nc2cc(F)c(F)c(F)c2)ccc1Cl` [Example 247]: the concentration giving a half-maximal response (EC50) under setting [1] was below 100 nM.
For the molecule `C[C@H](N)C(=O)OC[C@]1(O)CC2CC[C@@H](C1)[C@H]2S(=O)(=O)c1cc(C(=O)Nc2cc(F)c(F)c(F)c2)ccc1Cl` [Example 248], the concentration giving a half-maximal response (EC50) under setting [1] is below 100 nM.
With `O=C(Nc1cc(F)c(F)c(F)c1)c1ccc(Cl)c(S(=O)(=O)[C@H]2CC3CCC(C2)[C@H]3CO)c1` [Example 249], the concentration for a half-maximal effect (EC50) under setting [1] is 100 to 400 nM.
Same read-out and setting: in the case of `O=C(Nc1cc(F)c(F)c(F)c1)c1ccc(Cl)c(S(=O)(=O)[C@H]2CC3CCC(C2)[C@@H]3CO)c1` [Example 250] it was above 400 nM.
For the molecule `C[C@]1(O)C2CCC1C[C@H](S(=O)(=O)c1cc(C(=O)Nc3cc(F)c(F)c(F)c3)ccc1Cl)C2` [Example 251], under setting [2], the EC50 was above 400 nM.
As to `CC(C)[C@H](N)C(=O)OC[C@]1(O)CC2CC[C@@H](C1)[C@H]2S(=O)(=O)c1cc(C(=O)Nc2cc(F)c(F)c(F)c2)ccc1Cl` [Example 254], under setting [1], the EC50 was below 100 nM.
As for `CC(C)(C)OC(=O)N1C2CCC1CC(S(=O)(=O)c1cc(C(=O)Nc3cc(F)c(F)c(F)c3)ccc1Cl)C2` (centres unmarked) [Example 255], the EC50 under setting [1] is above 400 nM.
With `O=C(Nc1cc(F)c(F)c(F)c1)c1ccc(Cl)c(S(=O)(=O)[C@H]2CC3CCC(C2)[C@@]3(O)Cn2cccn2)c1` [Example 261], under setting [1], the EC50 is above 400 nM.
For `NC(=O)OCC1=C[C@@H]2CCC(C1)C2S(=O)(=O)c1cc(C(=O)Nc2cc(F)c(F)c(F)c2)ccc1Cl` (some centres unmarked) [Example 262], the EC50 under setting [1] is below 100 nM.
For `O=C(Nc1cc(F)c(F)c(F)c1)c1ccc(Cl)c(S(=O)(=O)[C@H]2C3CC[C@H]2C[C@]2(COS(=O)O2)C3)c1` (some centres unmarked) [Example 263], the EC50 under setting [1] was below 100 nM.
Same read-out and setting: with `O=C(Nc1cc(F)c(F)c(F)c1)c1ccc(Cl)c(S(=O)(=O)[C@H]2CC3CCC(C2)[C@]3(O)CNC(=O)[C@@H]2CCCN2)c1` [Example 264] the figure was below 100 nM.
For `CC(C)[C@H](NC(=O)OC(C)(C)C)C(=O)OC[C@]1(O)CC2CC[C@@H](C1)[C@H]2S(=O)(=O)c1cc(C(=O)Nc2cc(F)c(F)c(F)c2)ccc1Cl` [Example 265], the EC50 under setting [1] was 100 to 400 nM.
For `O=C(Nc1cc(F)c(F)c(F)c1)c1ccc(Cl)c(S(=O)(=O)C2CC3CCC(C2)N3)c1` (centres unmarked) [Example 266], the half-maximal effective concentration (EC50) (Hepatitis B virus, HePAD38, 120 h) lay in the range of 100 to 400 nM.
Take `CC[C@]1(O)CC2CC[C@@H](C1)[C@H]2S(=O)(=O)c1cc(C(=O)Nc2cc(F)c(F)c(F)c2)ccc1Cl` [Example 268]: under setting [1], the EC50 was in the range of 100 to 400 nM.
For the molecule `O=C(Nc1cc(F)c(F)c(F)c1)c1ccc(Cl)c(S(=O)(=O)[C@H]2C3CC[C@H]2C[C@@]2(CO2)C3)c1` [Example 269], the EC50 under setting [1] was below 100 nM.
With `C=CCOC[C@]1(O)CC2CC[C@@H](C1)[C@H]2S(=O)(=O)c1cc(C(=O)Nc2cc(F)c(F)c(F)c2)ccc1Cl` [Example 270], the 50% effective concentration (EC50) under setting [1] was below 100 nM.
Same read-out and setting: with `O=C(Nc1cc(F)c(F)c(F)c1)c1ccc(Cl)c(S(=O)(=O)[C@H]2C3CC[C@H]2C[C@H](Cn2cccn2)C3)c1` [Example 311] the figure was below 100 nM.
Regarding `O=C(Nc1cc(F)c(F)c(F)c1)c1ccc(Cl)c(S(=O)(=O)[C@H]2C3CC[C@H]2C[C@](O)(Cn2ccnc2)C3)c1` [Example 314], under setting [1], the half-maximal effective concentration (EC50) was below 100 nM.
Take `COc1ccc(COC[C@]2(O)CC3CC[C@@H](C2)[C@H]3S(=O)(=O)c2cc(C(=O)Nc3cc(F)c(F)c(F)c3)ccc2Cl)cc1` [Example 315]: under setting [1], the concentration giving a half-maximal response (EC50) was below 100 nM.
In the case of `O=C(Nc1cc(F)c(F)c(F)c1)c1ccc(Cl)c(S(=O)(=O)[C@H]2C3CC[C@H]2C[C@](O)(COCc2ccncc2)C3)c1` [Example 316], the EC50 under setting [1] fell in the range of 100 to 400 nM.
`CNC(=O)OC[C@@H]1CC2CC[C@@H](C1)[C@H]2S(=O)(=O)c1cc(C(=O)Nc2cc(F)c(F)c(F)c2)ccc1Cl` [Example 318]: the EC50 under setting [1] was below 100 nM.
Regarding `O=C(Nc1cc(F)c(F)c(F)c1)c1ccc(Cl)c(S(=O)(=O)[C@H]2C3CC[C@H]2C[C@](O)(COC/C=N/O)C3)c1` [Example 320], the EC50 under setting [1] was below 100 nM.
On to `O=C(Nc1cc(F)c(F)c(F)c1)c1ccc(Cl)c(S(=O)(=O)[C@H]2CC3CCC(C2)[C@]3(O)c2ccc(F)cn2)c1` [Example 323], for which the concentration for a half-maximal effect (EC50) under setting [1] is below 100 nM.
For `O=C(Nc1cc(F)c(F)c(F)c1)c1ccc(Cl)c(S(=O)(=O)[C@H]2C3CC[C@H]2C[C@](O)(COCCN2CCOCC2)C3)c1` [Example 325], the EC50 under setting [1] was below 100 nM.
In the case of `O=C(Nc1cc(F)c(F)c(F)c1)c1ccc(Cl)c(S(=O)(=O)[C@H]2C3CC[C@H]2C[C@](O)(COC/C=C/c2ccncc2)C3)c1` [Example 326], the EC50 under setting [1] is above 400 nM.
In the case of `O=C(Nc1cc(F)c(F)c(F)c1)c1ccc(Cl)c(S(=O)(=O)[C@H]2C3CC[C@H]2C[C@](O)(COCC(O)CO)C3)c1` (some centres unmarked) [Example 327], the EC50 under setting [1] lay within 100 to 400 nM.
Same read-out and setting: with `O=C(Nc1cc(F)c(F)c(F)c1)c1ccc(Cl)c(S(=O)(=O)[C@H]2C3CC[C@H]2C[C@](O)(COCC2CO2)C3)c1` (some centres unmarked) [Example 328] the figure was below 100 nM; with `O=C(Nc1cc(F)c(F)c(-n2cccn2)c1)c1ccc(Cl)c(S(=O)(=O)[C@H]2C3CC[C@H]2C[C@](O)(Cn2cccn2)C3)c1` [Example 333], above 400 nM; with `COC(=O)NC[C@@H]1CC2CC[C@@H](C1)[C@H]2S(=O)(=O)c1cc(C(=O)Nc2cc(F)c(F)c(F)c2)ccc1Cl` [Example 334], below 100 nM.
In the case of `COC(=O)N(C)C[C@@H]1CC2CC[C@@H](C1)[C@H]2S(=O)(=O)c1cc(C(=O)Nc2cc(F)c(F)c(F)c2)ccc1Cl` [Example 335], under setting [1], the EC50 is below 100 nM.
On to `O=C(Nc1cc(F)c(F)c(F)c1)c1ccc(Cl)c(S(=O)(=O)[C@H]2CC3CCC(C2)[C@]3(O)CN2CCOCC2)c1` [Example 336], for which the 50% effective concentration (EC50) under setting [1] was below 100 nM.
Take `O=C(Nc1cc(F)c(F)c(F)c1)c1ccc(Cl)c(S(=O)(=O)[C@H]2C3CCC2C[C@H](CN2CCOCC2)C3)c1` [Example 337]: the half-maximal effective concentration (EC50) under setting [1] fell in the range of 100 to 400 nM.

The values are drawn from US10538532B2, “Hepatitis B antiviral agents” (ENANTA PHARMACEUTICALS, INC., priority 2016, dated 2020).
